Data published in publication PMC8213421 (CPT: Pharmacometrics & Systems Pharmacology, 2021).

Key:
CYP3A4 [1] = settings: human, in vivo, 600 mg, cited from earlier work
OAT3 [2] = target: T1, OAT3 (Homo sapiens, UniProt Q8TCC7); settings: cited from earlier work
T1 sequence (Q8TCC7 1-542): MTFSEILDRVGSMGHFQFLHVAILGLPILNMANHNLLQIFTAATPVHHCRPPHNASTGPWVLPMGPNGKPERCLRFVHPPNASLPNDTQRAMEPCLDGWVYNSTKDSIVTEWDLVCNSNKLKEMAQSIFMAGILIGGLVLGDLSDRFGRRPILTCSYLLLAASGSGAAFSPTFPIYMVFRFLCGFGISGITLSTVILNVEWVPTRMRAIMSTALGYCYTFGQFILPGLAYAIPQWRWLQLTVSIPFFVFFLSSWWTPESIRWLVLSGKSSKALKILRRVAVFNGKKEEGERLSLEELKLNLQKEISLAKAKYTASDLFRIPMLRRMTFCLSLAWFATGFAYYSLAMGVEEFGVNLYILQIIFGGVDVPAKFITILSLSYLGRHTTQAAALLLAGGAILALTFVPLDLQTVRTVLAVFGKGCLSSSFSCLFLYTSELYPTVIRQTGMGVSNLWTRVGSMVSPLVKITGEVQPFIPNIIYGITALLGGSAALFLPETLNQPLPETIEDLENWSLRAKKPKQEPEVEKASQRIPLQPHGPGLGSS

[3] = Venetoclax observed clinical PK; type: in vivo; settings: human, plasma, oral
[4] = cited from earlier work
CYP3A4 [5] = settings: multiple doses of rifampicin 600 mg q.d.; cited from earlier work
CYP1A2 mRNA = assay: CYP induction in cultured human hepatocytes
human P‐gp = human P‐gp (Homo sapiens, UniProt P08183); assay: P-gp inhibition assay, bidirectional digoxin permeability in Caco-2 cells; type: cell-based
OATP1B1 = target: T2, OATP1B1 (Homo sapiens, UniProt Q9Y6L6); assay: Transporter inhibition in transfected HEK293 cells; type: cell-based
T2 sequence (Q9Y6L6 1-691): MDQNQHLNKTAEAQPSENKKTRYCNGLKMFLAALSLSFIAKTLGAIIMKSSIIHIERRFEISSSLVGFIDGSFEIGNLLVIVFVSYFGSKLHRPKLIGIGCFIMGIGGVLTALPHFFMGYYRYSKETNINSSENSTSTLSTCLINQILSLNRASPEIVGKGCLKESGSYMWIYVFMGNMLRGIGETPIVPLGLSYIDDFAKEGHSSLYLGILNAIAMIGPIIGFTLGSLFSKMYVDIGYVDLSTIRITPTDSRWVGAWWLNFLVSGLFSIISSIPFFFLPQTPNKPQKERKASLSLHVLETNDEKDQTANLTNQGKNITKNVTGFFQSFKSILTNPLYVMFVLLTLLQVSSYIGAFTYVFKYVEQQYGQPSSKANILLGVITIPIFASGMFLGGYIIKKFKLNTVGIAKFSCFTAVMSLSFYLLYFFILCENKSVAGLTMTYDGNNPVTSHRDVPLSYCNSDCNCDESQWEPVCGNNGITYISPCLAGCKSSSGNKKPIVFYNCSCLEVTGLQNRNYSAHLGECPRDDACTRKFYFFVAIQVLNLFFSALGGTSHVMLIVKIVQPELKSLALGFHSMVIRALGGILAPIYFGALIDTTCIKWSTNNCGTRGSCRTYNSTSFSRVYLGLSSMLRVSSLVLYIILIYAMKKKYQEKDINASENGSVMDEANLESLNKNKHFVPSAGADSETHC

OATP1B3 = target: T3, OATP1B3 (Homo sapiens, UniProt Q9NPD5); assay: Transporter inhibition in transfected HEK293 cells; type: cell-based
T3 sequence (Q9NPD5 1-702): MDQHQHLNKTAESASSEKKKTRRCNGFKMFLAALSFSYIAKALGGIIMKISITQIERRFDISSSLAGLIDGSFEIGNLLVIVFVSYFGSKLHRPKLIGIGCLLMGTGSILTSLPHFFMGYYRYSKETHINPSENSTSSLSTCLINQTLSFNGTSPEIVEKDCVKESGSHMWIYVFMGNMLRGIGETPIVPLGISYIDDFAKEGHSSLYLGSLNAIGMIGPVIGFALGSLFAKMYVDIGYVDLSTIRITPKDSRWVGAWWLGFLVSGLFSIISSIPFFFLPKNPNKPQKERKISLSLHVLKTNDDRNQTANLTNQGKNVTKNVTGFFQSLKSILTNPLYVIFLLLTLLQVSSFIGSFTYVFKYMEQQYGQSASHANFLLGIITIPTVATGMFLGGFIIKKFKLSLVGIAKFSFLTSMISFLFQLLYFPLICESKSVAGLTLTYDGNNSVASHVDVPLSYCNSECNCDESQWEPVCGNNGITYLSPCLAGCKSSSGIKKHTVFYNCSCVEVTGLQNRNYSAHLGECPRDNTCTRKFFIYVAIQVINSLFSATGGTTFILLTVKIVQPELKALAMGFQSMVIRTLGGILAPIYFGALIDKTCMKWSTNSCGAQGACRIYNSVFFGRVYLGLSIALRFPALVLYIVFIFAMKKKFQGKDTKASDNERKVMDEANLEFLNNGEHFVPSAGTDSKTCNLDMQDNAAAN

OAT3 [6] = target: T1, OAT3; assay: Transporter inhibition in transfected HEK293 cells; type: cell-based
OAT1 = target: T4, OAT1 (Homo sapiens, UniProt Q4U2R8); assay: Transporter inhibition in transfected HEK293 cells; type: cell-based
T4 sequence (Q4U2R8 1-563): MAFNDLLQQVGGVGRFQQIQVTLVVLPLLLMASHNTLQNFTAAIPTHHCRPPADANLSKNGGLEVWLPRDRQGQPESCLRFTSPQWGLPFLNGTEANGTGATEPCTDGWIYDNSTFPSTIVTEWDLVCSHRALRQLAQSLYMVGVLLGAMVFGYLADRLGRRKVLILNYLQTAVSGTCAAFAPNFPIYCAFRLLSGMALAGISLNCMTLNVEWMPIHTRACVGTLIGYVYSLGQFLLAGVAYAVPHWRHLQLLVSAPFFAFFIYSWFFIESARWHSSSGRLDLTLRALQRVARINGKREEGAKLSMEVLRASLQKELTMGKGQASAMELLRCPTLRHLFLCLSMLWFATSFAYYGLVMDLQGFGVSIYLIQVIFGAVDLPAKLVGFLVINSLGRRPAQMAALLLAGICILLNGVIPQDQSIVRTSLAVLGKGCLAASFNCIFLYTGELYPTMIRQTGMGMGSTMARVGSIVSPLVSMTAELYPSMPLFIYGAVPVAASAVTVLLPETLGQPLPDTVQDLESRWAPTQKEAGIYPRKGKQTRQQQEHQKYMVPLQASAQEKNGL

OCT2 = target: T5, OCT2 (Homo sapiens, UniProt O15244); assay: Transporter inhibition in transfected HEK293 cells; type: cell-based
T5 sequence (O15244 1-555): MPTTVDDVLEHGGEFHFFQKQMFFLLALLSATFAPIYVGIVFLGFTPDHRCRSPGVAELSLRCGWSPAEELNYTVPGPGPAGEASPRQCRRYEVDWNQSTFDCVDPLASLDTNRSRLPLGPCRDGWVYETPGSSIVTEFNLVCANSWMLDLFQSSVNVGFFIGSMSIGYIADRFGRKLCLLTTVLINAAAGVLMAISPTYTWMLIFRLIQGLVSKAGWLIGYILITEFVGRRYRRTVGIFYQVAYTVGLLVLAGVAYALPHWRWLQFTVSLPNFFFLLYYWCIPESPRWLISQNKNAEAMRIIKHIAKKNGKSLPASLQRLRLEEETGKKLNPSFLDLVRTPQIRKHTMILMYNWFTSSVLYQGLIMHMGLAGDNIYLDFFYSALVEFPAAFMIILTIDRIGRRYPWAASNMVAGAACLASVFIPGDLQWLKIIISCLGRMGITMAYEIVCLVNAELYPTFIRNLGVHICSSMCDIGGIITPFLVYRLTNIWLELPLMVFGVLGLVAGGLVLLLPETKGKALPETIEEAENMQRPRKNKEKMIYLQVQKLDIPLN

CYP3A4 [7] = assay: PBPK; parameters: species or system human; settings: based on simulated midazolam results
CYP3A4 mRNA [8] = settings: human, hepatocytes
CYP3A4 [9] = settings: patients, cited from earlier work
CYP3A4 [10] = settings: ivosidenib PBPK model; cited from earlier work
CYP3A4 mRNA [11] = assay: in vitro; settings: human
CYP2B6 mRNA = assay: CYP induction in cultured human hepatocytes
CYP2C8 mRNA = assay: CYP induction in cultured human hepatocytes
CYP2C9 mRNA = assay: CYP induction in cultured human hepatocytes
CYP2C19 mRNA = assay: CYP induction in cultured human hepatocytes; settings: all three hepatocyte cultures
OATP1B1/1B3 = settings: hepatic uptake, model; cited from earlier work
NTCP = settings: hepatic uptake, model; cited from earlier work
OAT3 [12] = settings: read-out: OAT3 Ki; lowest reported value; cited from earlier work
[13] = human, cultured human hepatocytes

human P‐gp, sequence (P08183 whole entry): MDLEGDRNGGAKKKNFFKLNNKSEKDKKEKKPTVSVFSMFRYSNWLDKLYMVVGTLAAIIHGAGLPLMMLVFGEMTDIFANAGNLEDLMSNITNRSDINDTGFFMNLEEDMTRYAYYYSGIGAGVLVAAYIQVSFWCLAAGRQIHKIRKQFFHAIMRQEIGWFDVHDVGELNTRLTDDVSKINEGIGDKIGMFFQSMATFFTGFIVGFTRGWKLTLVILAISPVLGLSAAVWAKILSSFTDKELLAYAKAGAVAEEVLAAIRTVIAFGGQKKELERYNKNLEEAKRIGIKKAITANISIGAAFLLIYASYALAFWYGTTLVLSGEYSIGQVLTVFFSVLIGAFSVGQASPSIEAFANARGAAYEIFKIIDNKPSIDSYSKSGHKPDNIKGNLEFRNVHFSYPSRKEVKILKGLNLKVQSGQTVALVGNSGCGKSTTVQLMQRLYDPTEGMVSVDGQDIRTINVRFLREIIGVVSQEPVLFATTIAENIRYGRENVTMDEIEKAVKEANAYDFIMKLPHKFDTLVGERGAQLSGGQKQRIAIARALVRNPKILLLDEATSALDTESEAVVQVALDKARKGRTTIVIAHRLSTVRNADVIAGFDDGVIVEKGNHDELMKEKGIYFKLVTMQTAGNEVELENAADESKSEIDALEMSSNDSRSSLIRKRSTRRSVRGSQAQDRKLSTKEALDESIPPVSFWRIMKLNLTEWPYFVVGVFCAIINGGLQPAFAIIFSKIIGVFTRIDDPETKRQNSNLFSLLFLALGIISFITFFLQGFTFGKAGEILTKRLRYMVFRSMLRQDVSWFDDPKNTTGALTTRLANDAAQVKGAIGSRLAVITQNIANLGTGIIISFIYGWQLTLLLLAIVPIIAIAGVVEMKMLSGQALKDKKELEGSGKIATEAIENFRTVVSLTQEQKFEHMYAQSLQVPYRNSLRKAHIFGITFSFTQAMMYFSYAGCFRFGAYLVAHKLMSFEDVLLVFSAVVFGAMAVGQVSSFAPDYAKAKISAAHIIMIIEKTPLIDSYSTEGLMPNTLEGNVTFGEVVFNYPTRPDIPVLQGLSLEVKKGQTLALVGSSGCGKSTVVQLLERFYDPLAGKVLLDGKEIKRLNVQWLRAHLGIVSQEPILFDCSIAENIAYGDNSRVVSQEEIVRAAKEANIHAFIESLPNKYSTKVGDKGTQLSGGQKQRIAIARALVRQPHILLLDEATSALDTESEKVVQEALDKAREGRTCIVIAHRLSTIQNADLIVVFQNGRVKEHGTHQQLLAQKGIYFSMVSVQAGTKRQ

Cc1ncc2n1-c1ccc(Cl)cc1C(c1ccccc1F)=NC2 [Midazolam]
reduction of midazolam AUC, i.v. (CYP3A4 [1]; iv): 51% | reduction of midazolam AUC, oral (CYP3A4 [1]; po): 92%

CN(Cc1cnc2nc(N)nc(N)c2n1)c1ccc(C(=O)N[C@@H](CCC(=O)O)C(=O)O)cc1 [Methotrexate]
reported methotrexate AUCR with probenecid (OAT3 [2]): 1.57 fold

CC1(C)CCC(CN2CCN(c3ccc(C(=O)NS(=O)(=O)c4ccc(NCC5CCOCC5)c([N+](=O)[O-])c4)c(Oc4cnc5[nH]ccc5c4)c3)CC2)=C(c2ccc(Cl)cc2)C1 [Venetoclax]
Vd [3]: 0.36 to 1.78 L/kg | estimated mean Vss/F from clinical data ([4]; patients): 3.67 L/kg | observed mean CL/F ([4]; venetoclax): 14.9 L/h | decrease of venetoclax AUC (CYP3A4 [5]): ~80% | decrease of venetoclax Cmax (CYP3A4 [5]): ~ 70%

COc1ccc2[nH]c([S+]([O-])Cc3ncc(C)c(OC)c3C)nc2c1 (stereo not drawn) [omeprazole, reference compound]
increase in CYP1A2 mRNA levels (CYP1A2 mRNA; prototypical inducer (positive control)): 104 ± 97 fold

N#Cc1ccnc(N2C(=O)CC[C@H]2C(=O)N(c2cncc(F)c2)[C@H](C(=O)NC2CC(F)(F)C2)c2ccccc2Cl)c1 [Ivosidenib]
IC50 (human P‐gp): 19.6 µM | IC50 (OATP1B1): 9.56 µM | IC50 (OATP1B3): 22.8 µM | IC50 (OAT3 [6]): 0.322 µM | IC50 (OAT1): > 65 µM | IC50 (OCT2): > 65 µM | classification as CYP3A4 inducer as per regulatory guidance (CYP3A4 [7]): strong inducer | CYP3A4 mRNA mean Emax (CYP3A4 mRNA [8]): 78.2 ± 113 | increase of mean 4β‐OHC levels (CYP3A4 [9]; 500 mg ivosidenib): ~ 199% | increase of 4β‐OHC (CYP3A4 [9]; after 28 days of 100 mg b.i.d. and 100–1200 mg q.d. ivosidenib): up to 371% | fm (fraction metabolized, CYP3A4) (CYP3A4 [10]): 0.865 | EC50 (CYP3A4 mRNA [11]): 12.5 ± 9.2 µM | CYP1A2 mRNA induction (CYP1A2 mRNA; 3 donors, 0.05-90 μM once daily 3 days): no significant induction | CYP2B6 mRNA mean Emax (CYP2B6 mRNA; human hepatocytes, 3 donors): 2.85 ± 1.53 | EC50 at 72 h (CYP2B6 mRNA; [13]): 2.93 ± 0.65 µM | CYP2C8 mRNA mean Emax (CYP2C8 mRNA; human hepatocytes, 3 donors): 3.79 ± 1.28 | EC50 at 72 h (CYP2C8 mRNA; [13]): 8.1 ± 3.3 µM | CYP2C9 mRNA mean Emax (CYP2C9 mRNA; human hepatocytes, 3 donors): 3.39 ± 0.63 | EC50 at 72 h (CYP2C9 mRNA; [13]): 3.23 ± 1.04 µM | effect on CYP2C19 mRNA levels (CYP2C19 mRNA): inconclusive

CCC1(c2ccccc2)C(=O)NC(=O)NC1=O [phenobarbital, reference compound]
increase in CYP2B6 mRNA levels (CYP2B6 mRNA; prototypical inducer (positive control), human hepatocytes): 13 ± 4.7 fold

CC(C)c1nc(N(C)S(C)(=O)=O)nc(-c2ccc(F)cc2)c1/C=C/[C@@H](O)C[C@@H](O)CC(=O)O [Rosuvastatin]
relative contribution of OATP1B1/1B3 to uptake of rosuvastatin (OATP1B1/1B3): 65% | relative contribution of NTCP to uptake of rosuvastatin (NTCP): 35%
